Format in all cases: cell-based, mouse
In assay [1] the test system is α7 integrin (LacZ reporter in α7βgal+/− myoblasts). Description: Myoblast α7+/LacZ integrin FDG assay (Burkin assay in myoblasts, 96-well). To be noted: α7+/LacZ myoblasts, 96-well.
The test system of assay [2] is α7 integrin (LacZ reporter in α7+/LacZ myotubes). Description: Myotube α7 integrin FDG assay (Burkin assay in myotubes, 96-well). Conditions: myotubes.
Assay [3] concerns β-galactosidase in CMV-LacZ C2C12 myotubes. As to the kind of experiment: CMV-LacZ secondary screen in C2C12 myotubes (β-Gal stabilizing assay). Conditions: for CMV-LACZ in Myotubes (β-galactosidase activity relative to DMSO): CMV-LacZ C2C12 myotubes, 96-well format. In outline:
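β-Gal level was the read-out, measured in a clonal C2C12 line expressing LacZ from a CMV promoter. Dose-response curves used six concentrations, 0.5 μM up to 40 μM, with duplicate points.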

The mark [4] stands for this setting: 5 uM, C2C12 CMV-LacZ myotubes, fold relative to DMSO.
Where [5] appears, read: 10 uM, C2C12 CMV-LacZ myotubes, fold relative to DMSO.
The mark [6] stands for this setting: 20 uM, C2C12 CMV-LacZ myotubes, fold relative to DMSO.
[7] abbreviates: 40 uM, C2C12 CMV-LacZ myotubes, fold relative to DMSO.

These results are taken from US9980943B2, “Methods of treating muscular dystrophy” (BOARD OF REGENTS OF THE NEVADA SYSTEM OF HIGHER EDUCATION, …, priority 2013, dated 2018).

SMILES strings stand for the structures.

`CCCCCCC1CC(=O)NC(=O)N1` (stereo not drawn) [MLS000768008-01]: the “Burkin Assay in Myoblasts, signal relative to DMSO” value came out at 0.9886 in assay [1] (0.5 uM); 0.9618 in assay [1] (1 uM); 0.8976 in assay [1] (5 uM); 0.8768 in assay [1] (10 uM); 0.7837 in assay [1] (20 uM); 0.8787 in assay [1] (40 uM). The “Burkin Assay in Myotubes, α7 integrin LacZ reporter signal relative to DMSO” value in assay [2] (0.5 uM) came out at 1.073; in assay [2] (1 uM), 1.179; in assay [2] (5 uM) it was 1.11; in assay [2] (10 uM), 1.273; in assay [2] (20 uM) it was 1.098; in assay [2] (40 uM), 1.2867. Besides, the “CMV-LACZ in Myotubes, signal relative to DMSO” value in assay [3] (setting [4]) turned out to be 0.8276; in assay [3] (setting [5]) it was 0.9644; in assay [3] (setting [6]), 1.028; in assay [3] (setting [7]), 0.9429.

Consider `O=C(NCCc1ccc(F)cc1)N[C@@H](Cc1ccccc1)C(=O)O` [MLS001214704-01], for which the fold induction at 0.5 µM stood at 1.11 in assay [1] (Mus musculus, Myoblast, 48 h, 0.5 uM, read-out: Burkin Assay in Myoblasts, value relative to DMSO) and 0.976 in assay [2] (Mus musculus, Myotube, 0.5 uM, read-out: Burkin Assay in Myotubes (signal relative to DMSO)). Further, the fold induction at 1 µM came out at 1.3 in assay [1] (Mus musculus, Myoblast, 48 h, 1 uM, read-out: Burkin Assay in Myoblasts, value relative to DMSO) and 1.11 in assay [2] (Mus musculus, Myotube, 1 uM, read-out: Burkin Assay in Myotubes (signal relative to DMSO)). For the same compound, the fold induction at 5 µM was found to be 1.08 in assay [1] (Mus musculus, Myoblast, 48 h, 5 uM, read-out: Burkin Assay in Myoblasts, value relative to DMSO); 1.07 in assay [2] (Mus musculus, Myotube, 5 uM, read-out: Burkin Assay in Myotubes (signal relative to DMSO)); 0.885 in assay [3] (Mus musculus, C2C12, read-out: CMV-LACZ in Myotubes, signal relative to DMSO, 5 uM, C2C12 CMV-LacZ myotubes, fold relative to DMSO). For the same compound, the fold induction at 10 µM was 1.19 in assay [1] (Mus musculus, Myoblast, 48 h, 10 uM, read-out: Burkin Assay in Myoblasts, value relative to DMSO); 1.11 in assay [2] (Mus musculus, Myotube, 10 uM, read-out: Burkin Assay in Myotubes (signal relative to DMSO)); 1.28 in assay [3] (Mus musculus, C2C12, read-out: CMV-LACZ in Myotubes, signal relative to DMSO, 10 uM, C2C12 CMV-LacZ myotubes, fold relative to DMSO). Further, the fold induction at 20 µM was 0.985 in assay [1] (Mus musculus, Myoblast, 48 h, 20 uM, read-out: Burkin Assay in Myoblasts, value relative to DMSO); 1.06 in assay [2] (Mus musculus, Myotube, 20 uM, read-out: Burkin Assay in Myotubes (signal relative to DMSO)); 0.933 in assay [3] (Mus musculus, C2C12, read-out: CMV-LACZ in Myotubes, signal relative to DMSO, 20 uM, C2C12 CMV-LacZ myotubes, fold relative to DMSO). Moreover, the fold induction at 40 µM came out at 1.05 in assay [1] (Mus musculus, Myoblast, 48 h, 40 uM, read-out: Burkin Assay in Myoblasts, value relative to DMSO); 1.16 in assay [2] (Mus musculus, Myotube, 40 uM, read-out: Burkin Assay in Myotubes (signal relative to DMSO)); 0.914 in assay [3] (Mus musculus, C2C12, read-out: CMV-LACZ in Myotubes, signal relative to DMSO, 40 uM, C2C12 CMV-LacZ myotubes, fold relative to DMSO).

Turning to `COc1ccc(CNC(=O)CCN2C(=O)c3ccccc3C2=O)cc1` [MLS001200980-01], the “Burkin Assay in Myoblasts, value relative to DMSO” value was determined as 0.9918 in assay [1] (0.5 uM); 0.9255 in assay [1] (1 uM); 1.055 in assay [1] (5 uM); 0.9544 in assay [1] (10 uM); 0.9561 in assay [1] (20 uM); 0.9201 in assay [1] (40 uM). Besides, the “Burkin Assay in Myotubes (signal relative to DMSO)” value in assay [2] (0.5 uM) was 1.0669; in assay [2] (1 uM), 1.022; in assay [2] (5 uM) it was 1.121; in assay [2] (10 uM) it was 1.216; in assay [2] (20 uM), 1.015; in assay [2] (40 uM), 0.9712. The “CMV-LACZ in Myotubes, signal relative to DMSO” value in assay [3] (setting [4]) was found to be 0.8782; in assay [3] (setting [5]), 0.9568; in assay [3] (setting [6]) it was 0.9272; in assay [3] (setting [7]), 1.0886.

Turning to `COCCN(CC(=O)Nc1cccc(C)c1C)C(=O)C1CCN(S(=O)(=O)c2ccccc2)CC1` [MLS002156278-01], the “Burkin Assay in Myoblasts, value relative to DMSO” value is given as 0.8597 in assay [1] (0.5 uM); 0.9642 in assay [1] (1 uM); 1.01 in assay [1] (5 uM); 0.9653 in assay [1] (10 uM); 0.8604 in assay [1] (20 uM); 0.8246 in assay [1] (40 uM). Moreover, the “Burkin Assay in Myotubes (signal relative to DMSO)” value in assay [2] (0.5 uM) is recorded as 1.005; in assay [2] (1 uM) it was 0.9637; in assay [2] (5 uM), 0.6908; in assay [2] (10 uM) it was 0.9924; in assay [2] (20 uM) it was 0.9719; in assay [2] (40 uM) it was 1.025. The “CMV-LACZ in Myotubes (β-galactosidase activity relative to DMSO)” value in assay [3] (5 uM) came out at 0.8694; in assay [3] (10 uM), 1.096; in assay [3] (20 uM), 0.9667; in assay [3] (40 uM), 1.031.

Take `Cc1ccc(C(=O)C(C)OC(=O)CNC(=O)c2ccc(Br)o2)cc1` (stereo not drawn) [MLS001160885-01]: the “Burkin Assay in Myoblasts, signal relative to DMSO” value came to 1.05 in assay [1] (0.5 uM); 0.9356 in assay [1] (1 uM); 0.9402 in assay [1] (5 uM); 0.9147 in assay [1] (10 uM); 1.021 in assay [1] (20 uM); 0.7914 in assay [1] (40 uM). For the same compound, the “Burkin Assay in Myotubes, α7 integrin LacZ reporter signal relative to DMSO” value in assay [2] (0.5 uM) was found to be 1; in assay [2] (1 uM), 0.9569; in assay [2] (5 uM), 1.108; in assay [2] (10 uM), 1.146; in assay [2] (20 uM) it was 1.018; in assay [2] (40 uM) it was 0.92. The “CMV-LACZ in Myotubes, signal relative to DMSO” value came to 1.167 in assay [3] (setting [4]), 0.9009 in assay [3] (setting [5]), 0.9095 in assay [3] (setting [6]) and 0.8319 in assay [3] (setting [7]).

As to `COc1ccccc1OCC(=O)Nc1cc2c(cc1C(=O)O)OCCCO2` [MLS001177045-01], the “Burkin Assay in Myoblasts, value relative to DMSO” value in assay [1] (0.5 uM) is on record as 0.8463; in assay [1] (1 uM), 1.032; in assay [1] (5 uM) it was 1.0025; in assay [1] (10 uM) it was 1.0259; in assay [1] (20 uM), 1.031; in assay [1] (40 uM), 0.9569. Further, the “Burkin Assay in Myotubes (signal relative to DMSO)” value is on record as 1.047 in assay [2] (0.5 uM); 0.8145 in assay [2] (1 uM); 1.024 in assay [2] (5 uM); 1.0851 in assay [2] (10 uM); 1.11 in assay [2] (20 uM); 0.9678 in assay [2] (40 uM). In addition, the “CMV-LACZ in Myotubes (β-galactosidase activity relative to DMSO)” value in assay [3] (5 uM) amounted to 0.9238; in assay [3] (10 uM) it was 1.11; in assay [3] (20 uM), 1.058; in assay [3] (40 uM), 1.118.
